Assay results reported in ChEMBL document CHEMBL3351455, “Discovery of 2-(cyclopentylamino)thieno[3,2-d]pyrimidin-4(3H)-one derivatives as a new series of potent phosphodiesterase 7 inhibitors” (J Med Chem, 2014).

Experiments:
[1] = target: High affinity 3',5'-cyclic-AMP phosphodiesterase 7A (Homo sapiens, UniProt Q13946); assay: Inhibition of human PDE7A1 expressed in insect cells assessed as inhibition of [3H]cAMP to [3H]AMP hydrolysis after 30 mins by scintillation counting
[2] = target: 3',5'-cyclic-AMP phosphodiesterase 4B (Homo sapiens, UniProt Q07343); assay: Inhibition of human PDE4B1 expressed in insect cells assessed as inhibition of [3H]cAMP to [3H]AMP hydrolysis after 30 mins by scintillation counting
Sequence of 3',5'-cyclic-AMP phosphodiesterase 4B (Q07343 whole entry): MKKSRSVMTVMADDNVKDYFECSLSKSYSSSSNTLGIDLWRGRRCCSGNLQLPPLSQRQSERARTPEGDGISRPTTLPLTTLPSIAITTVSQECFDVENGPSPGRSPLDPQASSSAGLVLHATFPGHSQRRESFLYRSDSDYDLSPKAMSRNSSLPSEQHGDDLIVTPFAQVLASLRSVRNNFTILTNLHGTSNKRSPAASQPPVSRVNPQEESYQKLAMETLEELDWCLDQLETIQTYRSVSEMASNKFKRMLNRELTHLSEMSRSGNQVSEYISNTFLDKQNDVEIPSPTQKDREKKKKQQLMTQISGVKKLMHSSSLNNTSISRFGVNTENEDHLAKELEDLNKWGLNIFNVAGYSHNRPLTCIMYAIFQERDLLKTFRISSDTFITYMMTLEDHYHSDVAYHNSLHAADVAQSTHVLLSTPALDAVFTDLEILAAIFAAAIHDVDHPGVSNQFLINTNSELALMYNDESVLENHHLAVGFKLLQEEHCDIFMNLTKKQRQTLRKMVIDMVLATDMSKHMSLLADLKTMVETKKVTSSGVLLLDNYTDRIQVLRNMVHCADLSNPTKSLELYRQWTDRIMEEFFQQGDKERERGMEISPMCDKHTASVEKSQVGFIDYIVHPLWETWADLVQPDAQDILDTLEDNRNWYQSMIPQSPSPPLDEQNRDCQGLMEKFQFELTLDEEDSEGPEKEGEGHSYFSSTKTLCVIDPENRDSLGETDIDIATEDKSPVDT

Lymphocyte = assay: Inhibition of IL2 production in activated mouse lymphocytes after 3 hrs by ELISA; assay type: functional, cell-based
Liver microsome [3] = assay: Stability in human liver microsomes; assay type: ADME
Liver microsome [4] = assay: Stability in rat liver microsomes; assay type: ADME
[5] = Permeability of the compound by PAMPA; assay type: ADME

Sequence of High affinity 3',5'-cyclic-AMP phosphodiesterase 7A (Q13946 whole entry): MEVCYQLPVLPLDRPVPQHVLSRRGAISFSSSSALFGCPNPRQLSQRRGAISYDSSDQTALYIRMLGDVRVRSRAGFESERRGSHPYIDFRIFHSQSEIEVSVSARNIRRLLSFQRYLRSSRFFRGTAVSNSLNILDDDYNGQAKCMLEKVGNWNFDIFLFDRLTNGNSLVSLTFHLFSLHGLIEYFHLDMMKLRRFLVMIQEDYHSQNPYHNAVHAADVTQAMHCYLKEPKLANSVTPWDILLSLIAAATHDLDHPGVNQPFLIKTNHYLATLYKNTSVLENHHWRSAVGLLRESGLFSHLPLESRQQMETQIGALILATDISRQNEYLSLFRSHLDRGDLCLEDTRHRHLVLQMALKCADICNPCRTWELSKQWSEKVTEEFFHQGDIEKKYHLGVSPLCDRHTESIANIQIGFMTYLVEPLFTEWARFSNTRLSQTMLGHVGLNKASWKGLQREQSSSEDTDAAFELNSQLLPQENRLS

SMILES	IC50 [1]	IC50 [2]	IC50 (Lymphocyte)	Stability (Liver microsome [3])	Stability (Liver microsome [4])	permeability [5]
CCn1c(NC2CCCC2)nc2ccsc2c1=O	150 nM	4900 nM	5400 nM	–	–	–
CCn1c(NC2CCCC2)nc2c(C)csc2c1=O	98 nM	3800 nM	> 3000 nM	–	–	–
CCc1csc2c(=O)n(CC)c(NC3CCCC3)nc12	42 nM	5900 nM	2900 nM	–	–	–
C=Cc1csc2c(=O)n(CC)c(NC3CCCC3)nc12	30 nM	3700 nM	980 nM	–	–	–
C#Cc1csc2c(=O)n(CC)c(NC3CCCC3)nc12	–	3000 nM	560 nM	–	–	–
CCn1c(NC2CCCC2)nc2c(C#N)csc2c1=O	67 nM	3200 nM	890 nM	–	–	–
CCn1c(NC2CCCC2)nc2c(C#Cc3cccnc3)csc2c1=O	4.2 nM	1400 nM	1300 nM	–	–	–
CCn1c(NC2CCCC2)nc2c(C#CCN3CCOCC3)csc2c1=O	19 nM	820 nM	1700 nM	–	–	–
CCn1c(NC2CCCC2)nc2c(CCc3cccnc3)csc2c1=O	7.3 nM	1100 nM	1000 nM	–	–	–
CCn1c(NC2CCCC2)nc2c(-c3ccccc3)csc2c1=O	5.6 nM	720 nM	1800 nM	–	–	–
CCn1c(NC2CCCC2)nc2c(-c3ccccc3C(=O)OC)csc2c1=O	380 nM	3800 nM	9100 nM	–	–	–
CCn1c(NC2CCCC2)nc2c(-c3cccnc3)csc2c1=O	2 nM	380 nM	89 nM	Unstable	Unstable	permeable
CCn1c(NC2CCCC2)nc2c(-c3ccc(N4CCOCC4)nc3)csc2c1=O	–	520 nM	77 nM	Unstable	Unstable	permeable
CCn1c(NC2CCCC2)nc2c(N3CCN(C(=O)OC(C)(C)C)CC3=O)csc2c1=O	12 nM	3300 nM	3000 nM	–	–	–

The next lines start with results.

IC50 [1]	SMILES	IC50 [2]	IC50 (Lymphocyte)	Stability (Liver microsome [3])	Stability (Liver microsome [4])	permeability [5]
160 nM	C=CCNc1nc2cc(-c3ccc(N4CCN(C(C)C)CC4)cc3)sc2c(=O)n1C	–	–	–	–	–
1100 nM	C=CCNc1nc2cc(-c3cccc(C(=O)NCCO)c3)sc2c(=O)n1C	–	–	–	–	–
310 nM	C=CCNc1nc2cc(-c3ccc(C(=O)NCCCN(C)C)cc3)sc2c(=O)n1C	–	–	–	–	–
6800 nM	C=CCNc1nc2cc(-c3ccccc3)sc2c(=O)n1C	–	–	–	–	–
5000 nM	C=CCNc1nc2ccsc2c(=O)n1C	–	–	–	–	–
740 nM	CCn1c(NC2CCCCC2)nc2ccsc2c1=O	–	–	–	–	–
11000 nM	CCn1c(NC2CCCC2)nc2cc(C)sc2c1=O	–	–	–	–	–
6500 nM	CCc1cc2nc(NC3CCCC3)n(CC)c(=O)c2s1	3500 nM	–	–	–	–
> 1000 nM	CCn1c(NC2CCCC2)nc2cc(CNc3cccnc3)sc2c1=O	920 nM	–	–	–	–
2600 nM	CCn1c(NC2CCCC2)nc2cc(C(=O)Nc3ccc(N4CCC(O)CC4)nc3)sc2c1=O	–	–	–	–	–
39 nM	CCn1c(NC2CCCC2)nc2c(CCCN3CCOCC3)csc2c1=O	3400 nM	2000 nM	–	–	–
5 nM	CCn1c(NC2CCCC2)nc2c(-c3cccc(C(=O)OC)c3)csc2c1=O	480 nM	290 nM	–	–	–
4.9 nM	CCn1c(NC2CCCC2)nc2c(-c3ccc(C(=O)OC)cc3)csc2c1=O	1000 nM	1300 nM	–	–	–
2.3 nM	CCn1c(NC2CCCC2)nc2c(-c3ccc(CN4CCOCC4)cc3)csc2c1=O	640 nM	1000 nM	Unstable	Unstable	permeable
